According to US10604554B2, “Double-acylated GLP-1 derivatives” (Novo Nordisk A/S, priority 2012, dated 2020):
Numbered stars: 1 amine (or outer) side, 2 acyl side, 3 side chain; on linkers, the order of the positions; unused ones are H or OH. Square brackets hold non-standard residues; d marks the D form. Side chains are listed from the residue outwards. Peptide text beside a SMILES is read from it. * marks the point of attachment. Undecanoyl(11-OPh(4-COOH)) = O=C(O)c1ccc(OCCCCCCCCCCC(=O)*)cc1; γGlu = O=C(O)[C@H](CCC(=O)[*:2])N[*:1]; εLys = N[C@@H](CCCCN[*:1])C(=O)[*:2]; Aib = CC(C)(N)C(=O)O

Key:
[1] = target: T1, human GLP-1 receptor (Homo sapiens, UniProt P43220); experiment: In vitro potency (CRE luciferase; whole cells); format: cell-based; design: EC50/pM (ratio 1% HSA/0% HSA): unit not given here; details: for EC50: BHK cells; for EC50/pM (ratio 1% HSA/0% HSA): ratio of EC50 at 1% HSA to EC50 at 0% HSA
T1 construct: expressed in transfected cells; host or cells: BHK cells, clone FCW467-12A/KZ10-1 (parent line BHKTS13), further transfected with CRE luciferase
Procedure, shortened: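 Stably transfected BHK cells carrying human GLP-1R and a CRE–firefly luciferase reporter, 5×10^3 cells/well in assay medium, run with 0% or 1% HSA in assay buffer.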

[2] = target: T1, human GLP-1 receptor; experiment: GLP-1 receptor binding (SPA, displacement of 125I-GLP-1)
Procedure, shortened: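 Membranes from a stably transfected hamster cell line, 5-10 ug protein/sample, with WGA SPA beads and [125I]-GLP-1(7-36)NH2 at 0.06 nM final. Incubated 120 min at 30 °C with shaking, then counted.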

[3] = Pharmacokinetic (PK) study in rat; details: male, Sprague Dawley, in vivo, iv, 6 nmol/kg
[4] = Pharmacokinetic (PK) study in minipig; details: male, Göttingen, in vivo, iv
[5] = In vitro potency (CRE luciferase) EC50 (1% HSA), 1% HSA
[6] = Receptor binding affinity IC50 (high HSA), 2.0% HSA (high albumin)
[7] = In vitro potency (CRE luciferase) EC50 (0% HSA), 0% HSA
[8] = Receptor binding affinity IC50 (low HSA), 0.001% HSA (low albumin)

T1 sequence (P43220 24-463): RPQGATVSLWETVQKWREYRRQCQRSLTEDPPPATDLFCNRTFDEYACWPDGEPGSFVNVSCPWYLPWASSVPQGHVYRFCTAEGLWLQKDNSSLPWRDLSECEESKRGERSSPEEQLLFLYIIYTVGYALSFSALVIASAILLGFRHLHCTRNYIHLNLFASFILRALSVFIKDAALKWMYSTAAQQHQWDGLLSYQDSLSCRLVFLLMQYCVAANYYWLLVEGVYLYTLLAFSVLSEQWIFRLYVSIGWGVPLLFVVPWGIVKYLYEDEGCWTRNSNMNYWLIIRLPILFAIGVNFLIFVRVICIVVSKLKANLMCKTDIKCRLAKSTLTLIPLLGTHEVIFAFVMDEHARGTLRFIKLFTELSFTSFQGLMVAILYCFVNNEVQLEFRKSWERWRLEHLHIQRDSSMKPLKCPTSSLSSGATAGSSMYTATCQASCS

CC[C@H](C)[C@H](NC(=O)[C@H](Cc1ccccc1)NC(=O)[C@H](CCC(=O)O)NC(=O)[C@H](CCCCNC(=O)[C@@H](N)CCCCNC(=O)CNC(=O)[C@H](CO)NC(=O)[C@H](CO)NC(=O)CNC(=O)[C@H](CO)NC(=O)[C@H](CO)NC(=O)CC[C@H](NC(=O)CCCCCCCCCCCOc1ccc(C(=O)O)cc1)C(=O)O)NC(=O)[C@H](C)NC(=O)[C@H](C)NC(=O)[C@H](CCC(N)=O)NC(=O)CNC(=O)[C@H](CCC(=O)O)NC(=O)[C@H](CC(C)C)NC(=O)[C@H](Cc1ccc(O)cc1)NC(=O)[C@H](CO)NC(=O)[C@H](CO)NC(=O)[C@@H](NC(=O)[C@H](CC(=O)O)NC(=O)[C@H](CO)NC(=O)[C@@H](NC(=O)[C@H](Cc1ccccc1)NC(=O)[C@@H](NC(=O)CNC(=O)[C@H](CCC(=O)O)NC(=O)C(C)(C)NC(=O)[C@@H](N)Cc1c[nH]cn1)[C@@H](C)O)[C@@H](C)O)C(C)C)C(=O)N[C@@H](C)C(=O)N[C@@H](Cc1c[nH]c2ccccc12)C(=O)N[C@@H](CC(C)C)C(=O)N[C@H](C(=O)N[C@@H](CCCNC(=N)N)C(=O)NCC(=O)N[C@@H](CCCNC(=N)N)C(=O)N[C@@H](CCCCNC(=O)[C@@H](N)CCCCNC(=O)CNC(=O)[C@H](CO)NC(=O)[C@H](CO)NC(=O)CNC(=O)[C@H](CO)NC(=O)[C@H](CO)NC(=O)CC[C@H](NC(=O)CCCCCCCCCCCOc1ccc(C(=O)O)cc1)C(=O)O)C(=O)O)C(C)C [Example 23]
EC50 [1, 5]: 0.156 nM
IC50 [2, 6]: 102 nM
half-life [3]: 19 h

CC[C@H](C)[C@H](NC(=O)[C@H](Cc1ccccc1)NC(=O)[C@H](CCC(=O)O)NC(=O)[C@H](CCCCNC(=O)[C@@H](N)CCCCNC(=O)[C@@H](N)CCCCNC(=O)CC[C@H](NC(=O)CCCCCCCCCCOc1ccc(C(=O)O)cc1)C(=O)O)NC(=O)[C@H](C)NC(=O)[C@H](C)NC(=O)[C@H](CCC(N)=O)NC(=O)[C@H](CCC(=O)O)NC(=O)[C@H](CCC(=O)O)NC(=O)[C@H](CC(C)C)NC(=O)[C@H](Cc1ccc(O)cc1)NC(=O)[C@H](CO)NC(=O)[C@H](CO)NC(=O)[C@@H](NC(=O)[C@H](CC(=O)O)NC(=O)[C@H](CO)NC(=O)[C@@H](NC(=O)[C@H](Cc1ccccc1)NC(=O)[C@@H](NC(=O)CNC(=O)[C@H](CCC(=O)O)NC(=O)C(C)(C)NC(=O)[C@@H](N)Cc1c[nH]cn1)[C@@H](C)O)[C@@H](C)O)C(C)C)C(=O)N[C@@H](C)C(=O)N[C@@H](Cc1c[nH]c2ccccc12)C(=O)N[C@@H](CC(C)C)C(=O)N[C@H](C(=O)N[C@@H](CCC(N)=O)C(=O)NCC(=O)N[C@@H](CCCNC(=N)N)C(=O)N[C@@H](CCCCNC(=O)[C@@H](N)CCCCNC(=O)[C@@H](N)CCCCNC(=O)CC[C@H](NC(=O)CCCCCCCCCCOc1ccc(C(=O)O)cc1)C(=O)O)C(=O)O)C(C)C [Example 36, N^ε26-[(2S)-2-amino-6-[[(2S)-2-amino-6-[[(4S)-4-carboxy-4-[11-(4-carboxyphenoxy)undecanoylamino]butanoyl]amino]hexanoyl]amino]hexanoyl], N^ε37-[(2S)-2-amino-6-[[(2S)-2-amino-6-[[(4S)-4-carboxy-4-[11-(4-carboxyphenoxy)undecanoylamino]butanoyl]amino]hexanoyl]amino]hexanoyl]-[Aib^8,Glu^22,Gln^34,Lys^37]-GLP-1-(7-37)-peptide] (H-H[Aib]EGTFTSDVSSYLEEQAAK([εLys-εLys-γGlu-Undecanoyl(11-OPh(4-COOH))])EFIAWLVQGRK([εLys-εLys-γGlu-Undecanoyl(11-OPh(4-COOH))])-OH; N-terminus and C-terminus assumed)
EC50 [1, 7]: 0.0049 nM
EC50 [1, 5]: 0.065 nM
EC50/pM (ratio 1% HSA/0% HSA) [1]: 14
IC50 [2, 6]: 25 nM
IC50 [2, 8]: 0.1 nM
half-life [4]: 69 h

CC[C@H](C)[C@H](NC(=O)[C@H](Cc1ccccc1)NC(=O)[C@H](CCC(=O)O)NC(=O)[C@H](CCCCNC(=O)[C@@H](N)CCCCNC(=O)[C@@H](N)CCCCNC(=O)CC[C@H](NC(=O)CC[C@H](NC(=O)CC[C@H](NC(=O)CCCCCCCCCCOc1ccc(C(=O)O)cc1)C(=O)O)C(=O)O)C(=O)O)NC(=O)[C@H](C)NC(=O)[C@H](C)NC(=O)[C@H](CCC(N)=O)NC(=O)CNC(=O)[C@H](CCC(=O)O)NC(=O)[C@H](CC(C)C)NC(=O)[C@H](Cc1ccc(O)cc1)NC(=O)[C@H](CO)NC(=O)[C@H](CO)NC(=O)[C@@H](NC(=O)[C@H](CC(=O)O)NC(=O)[C@H](CO)NC(=O)[C@@H](NC(=O)[C@H](Cc1ccccc1)NC(=O)[C@@H](NC(=O)CNC(=O)[C@H](CCC(=O)O)NC(=O)C(C)(C)NC(=O)[C@@H](N)Cc1c[nH]cn1)[C@@H](C)O)[C@@H](C)O)C(C)C)C(=O)N[C@@H](C)C(=O)N[C@@H](Cc1c[nH]c2ccccc12)C(=O)N[C@@H](CC(C)C)C(=O)N[C@H](C(=O)N[C@@H](CCCNC(=N)N)C(=O)NCC(=O)N[C@@H](CCCNC(=N)N)C(=O)N[C@@H](CCCCNC(=O)[C@@H](N)CCCCNC(=O)[C@@H](N)CCCCNC(=O)CC[C@H](NC(=O)CC[C@H](NC(=O)CC[C@H](NC(=O)CCCCCCCCCCOc1ccc(C(=O)O)cc1)C(=O)O)C(=O)O)C(=O)O)C(=O)O)C(C)C [Example 30]
EC50 [1, 7]: 0.0054 nM
EC50 [1, 5]: 0.093 nM
EC50/pM (ratio 1% HSA/0% HSA) [1]: 17
IC50 [2, 6]: 203 nM
IC50 [2, 8]: 0.42 nM
half-life [3]: 16 h

CC[C@H](C)[C@H](NC(=O)[C@H](Cc1ccccc1)NC(=O)[C@H](CCC(=O)O)NC(=O)[C@H](CCCCNC(=O)[C@@H](N)CCCCNC(=O)[C@@H](N)CCCCNC(=O)CC[C@H](NC(=O)CCCCCCCCCCCOc1ccc(C(=O)O)cc1)C(=O)O)NC(=O)[C@H](C)NC(=O)[C@H](C)NC(=O)[C@H](CCC(N)=O)NC(=O)CNC(=O)[C@H](CCC(=O)O)NC(=O)[C@H](CC(C)C)NC(=O)[C@H](Cc1ccc(O)cc1)NC(=O)[C@H](CO)NC(=O)[C@H](CO)NC(=O)[C@@H](NC(=O)[C@H](CC(=O)O)NC(=O)[C@H](CO)NC(=O)[C@@H](NC(=O)[C@H](Cc1ccccc1)NC(=O)[C@@H](NC(=O)CNC(=O)[C@H](CCC(=O)O)NC(=O)C(C)(C)NC(=O)[C@@H](N)Cc1c[nH]cn1)[C@@H](C)O)[C@@H](C)O)C(C)C)C(=O)N[C@@H](C)C(=O)N[C@@H](Cc1c[nH]cn1)C(=O)N[C@@H](CC(C)C)C(=O)N[C@H](C(=O)N[C@@H](CCC(N)=O)C(=O)NCC(=O)N[C@@H](CCCNC(=N)N)C(=O)N[C@@H](CCCCNC(=O)[C@@H](N)CCCCNC(=O)[C@@H](N)CCCCNC(=O)CC[C@H](NC(=O)CCCCCCCCCCCOc1ccc(C(=O)O)cc1)C(=O)O)C(=O)O)C(C)C [Example 4, N^ε26-[(2S)-2-amino-6-[[(2S)-2-amino-6-[[(4S)-4-carboxy-4-[12-(4-carboxyphenoxy)dodecanoylamino]butanoyl]amino]hexanoyl]amino]hexanoyl], N^ε37-[(2S)-2-amino-6-[[(2S)-2-amino-6-[[(4S)-4-carboxy-4-[12-(4-carboxyphenoxy)dodecanoylamino]butanoyl]amino]hexanoyl]amino]hexanoyl]-[Aib^8,His^31,Gln^34,Lys^37]-GLP-1-(7-37)-peptide]
EC50 [1, 5]: 1.61 nM
EC50/pM (ratio 1% HSA/0% HSA) [1]: 307
IC50 [2, 6]: 172 nM
IC50 [2, 8]: 0.48 nM
half-life [3]: 17 h
